{"source": "patent US20110071094A1", "about": "“(D)-ALLOSE INDUCING PROGRAMMED CELL DEATH IN HORMONE REFRACTORY PROSTATE CANCER LINES” (INDUSTRY-ACADEMIC COOPERATION FOUDATION, GYEONGSANG …, priority 2008, published 2011)", "format_in_all_cases": "cell-based, human", "key": {"Bcl-2 mRNA": {"system": "Bcl-2 mRNA", "assay": "RT-PCR of Bcl-2 mRNA in DU145", "settings": "DU145, 72 h, 0, 20 and 40 mM", "experimental": "(§1) To identify the relative levels of expression of Bcl-2, Bax and Caspase 3 mRNAs after 0, 20 and 40 mM of D-allose treatments for 72 h, RT-PCR was performed. DU145 cell line (1×10^6 cells in triplicate culture plates) was harvested as mentioned above and total RNA was extracted using TRIzol reagent (Invitrogen, Carlsbad, Calif., USA) following a standard laboratory protocol. The RNA purity and concentrations were determined. Then 2 μg of total RNA was reversely transcribed to single-stranded cDNA using Oligo(dT)12-18 primer (Invitrogen, Carlsbad, Calif., USA) with M-MLV reverse transcriptase (Promega, Madison, Wis., USA). For PCR reaction, 4 μl of cDNA was reacted with 20 pmol each of the forward and reverse primers (Bioneer Corporation, Seoul, South Korea), and GoTaq® Green Master Mix […] containing PCR buffer, 25 mM magnesium chloride, 10 mM dNTP mix and Taq enzyme (Promega, Madison, Wis., USA), and amplified. […] The molecular sizes of the amplified products were determined by comparison with the molecular weight marker (100 by DNAladder; Promega, Madison, Wis., USA) run parallel with the PCR products. The densities of mRNA bands were analyzed by Molecular Analyst™, version 1.4.1 (Bio-Rad, Hercules, Calif., USA)."}, "DU145 cell line": {"system": "DU145 cell line", "assay": "Cell cycle analysis, PI staining, flow cytometry", "settings": "for cells in G0-G1 phase: 48 h, untreated control 31.9%", "experimental": "DU145 cell line (1×10^6 cells in triplicate culture plates) was treated with D-allose (0, 20 and 40 mM) for 48 and 72 h. The cells were treated with trypsin and harvested with PBS, centrifuged and resuspended the pellet in cold PBS-methanol mixture (1:9) for 1 h at 4° C. The cells were centrifuged, pellet washed and resuspended with PBS again, and incubated with RNAse (20 mg/ml in PBS) for 30 min at 37° C. The cells were chilled over ice and stained with PI (1 mg/ml in PBS) for 1 h and analyzed by flow cytometry using CellQuest software, version 3.0, performed on a FACSCalibur, fluorescence (FL2-A) detector equipped with 488 nm argon laser light source and 623 nm band pass filter (Becton Dickinson, San Jose, Calif., USA). Total 10,000 cells were acquired for analysis by CellQuest software and the quantification of FACS data was performed using ModFit LT software, version 2.0, (Becton Dickinson, San Jose, Calif., USA). The cell population was gated according to the characteristics side scatter and forward scatter intensities of FACS. The number of all gated living cells was taken as 100%, from which the percentage of cells in G0-G1, S and G2-M phase was calculated and presented in the right side of the histogram."}, "Bax mRNA": {"system": "Bax mRNA", "assay": "RT-PCR of Bax mRNA in DU145", "settings": "DU145, 72 h, 0, 20 and 40 mM; relative to reduced Bcl-2 mRNA", "experimental": "as §1"}, "PARP": {"system": "PARP", "assay": "Western blot analysis of PARP protein in DU145", "settings": "DU145, 0, 20 and 40 mM, 72 h", "experimental": "After 0, 20 and 40 mM of D-allose treatments for 72 h, DU145 cell line (1×10^6 cells in triplicate culture plates) was harvested into cell lysis buffer (Cell Signaling, Danvers, Mass., USA) supplemented with 1 mM PMSF. The cells were then sonicated, centrifuged and protein concentration was measured by Bradford assay with the Bio-Rad protein assay solution using bovine serum albumin (BSA) as standard. Proteins (30 μg) were separated on a 12.5% SDS-PAGE under reducing conditions and transferred onto a PVDF membrane (Santa Cruz Biotechnology, Santa Cruz, Calif., USA). Prestained protein marker, broad range: 6-175 kDa (New England Biolabs Inc., Ipswich, Mass., USA) run in parallel for detection of the molecular weights of the proteins. Membrane was blocked with 5% (w/v) skimmed milk in order to reduce non-specific binding and immunoblotting was performed using rabbit derived anti-Bcl-2, anti-Bax, anti-Caspase 3 and anti-PARP antibodies (1:500; Santa Cruz Biotechnology, Santa Cruz, Calif., USA). […] Membrane was probed with a goat derived horseradish peroxidase-conjugated anti-rabbit IgG (1:1000; Santa Cruz Biotechnology, Santa Cruz, Calif., USA), and proteins were detected by the enhanced chemiluminescence (ECL) detection system according to the vendor's protocol (Amersham Biosciences, Piscataway, N.J., USA) followed by X-ray exposure. […]"}}}
{"smiles": "O=C[C@H](O)[C@H](O)[C@H](O)[C@H](O)CO", "note": "[D-allose]", "values": [{"measurement": "Bcl-2 mRNA expression", "setting": "Bcl-2 mRNA", "result": "significantly reduced"}, {"measurement": "cells in G0-G1 phase", "setting": "DU145 cell line; DU145, 20 mM", "result": 48.7, "unit": "%"}, {"measurement": "cells in G0-G1 phase", "setting": "DU145 cell line; DU145, 40 mM", "result": 57.5, "unit": "%"}, {"measurement": "cell number in G2-M phase and S phase", "setting": "DU145 cell line; DU145, 48 h", "result": "concomitant decrease"}, {"measurement": "Bax mRNA expression", "setting": "Bax mRNA", "result": "opposite effect"}, {"measurement": "cleaved PARP product", "setting": "PARP", "result": "concomitant increase"}, {"measurement": "full length PARP protein expression", "setting": "PARP", "result": "remarkable dose-dependent decrease"}]}
